Columns and labels:
Alternaria solani = test: Activity against early blight of tomato caused by Alternaria solani (protective spray, potted plants); format: in vivo; settings: 250 ppm active compound; tomato cultivar St. Pierre beef tomato; infected next day; assessed after 5 days; untreated plants 80% infected
Description: The active compounds were prepared as a stock solution comprising 0.25% by weight of active compound in acetone or dimethyl sulfoxide (DMSO). 1% by weight of the emulsifier Uniperol® EL (wetting agent having emulsifying and dispersing action based on ethoxylated alkylphenols) was added to this solution, and the mixture was diluted with water to the desired concentration. Leaves of potted plants of the cultivar “St. Pierre beef tomato” were sprayed to run off point with an aqueous suspension having the concentration of active compounds stated below. The next day, the leaves were infected with an aqueous zoospore suspension of Alternaria solani in 2% biomalt solution having a density of 0.17×10^6 spores/ml. The plants were then placed in a water-vapor-saturated chamber at temperatures of between 20 and 22° C. After 5 days, the infection on the leaves of the untreated, but infected control plants had developed to such an extent that the infection could be determined visually in %.

Botrytis cinerea = test: Activity against gray mold on bell pepper leaves caused by Botrytis cinerea (protective spray, seedlings); format: in vivo; settings: 250 ppm active compound; bell pepper seedlings Neusiedler Ideal Elite; inoculated next day; assessed after 5 days; untreated plants 90% infected
Description: The active compounds were prepared as a stock solution comprising 0.25% by weight of active compound in acetone or dimethyl sulfoxide (DMSO). 1% by weight of the emulsifier Uniperol® EL (wetting agent having emulsifying and dispersing action based on ethoxylated alkylphenols) was added to this solution, and the mixture was diluted with water to the desired concentration.
Bell pepper seedlings of the cultivar “Neusiedler Ideal Elite” were, after 2-3 leaves were well developed, sprayed to runoff point with an aqueous suspension having the concentration of active compound stated below. The next day, the treated plants were inoculated with a spore suspension of Botrytis cinerea which contained 1.7×10^6 spores/ml in a 2% strength aqueous biomalt solution. The test plants were then placed in a climatized chamber at 22-24° C. and high atmospheric humidity. After 5 days, the extent of the fungal infection on the leaves could be determined visually in %.

Question: For `CCC(C)Cc1c(-c2ccc([N+](=O)[O-])cc2Cl)c(C)nc2ncnn12` (centres unmarked) [example 1, 5-methyl-6-(2chloro-4-nitrophenyl)-7-(2-methylbutyl)-1,2,4-triazolo[1,5-a]pyrimidine], which “infection on the leaves determined visually in %” value (Alternaria solani) is on record?
Answer: less than 5%

Question: And the “extent of the fungal infection on the leaves determined visually in %” value (Botrytis cinerea)?
Answer: no infection
